Assay results as given in patent publication US9226916B2, “Pyrrolidine derivatives” (HOFFMANN-LA ROCHE INC., priority 2009, dated 2016).

Molecular target: T1, recombinant human NK3 receptor (Homo sapiens, UniProt P29371)
T1 construct: expressed in transfected cells; host or cells: HEK293 cells, transient expression; membranes
T1 sequence (P29371 1-465): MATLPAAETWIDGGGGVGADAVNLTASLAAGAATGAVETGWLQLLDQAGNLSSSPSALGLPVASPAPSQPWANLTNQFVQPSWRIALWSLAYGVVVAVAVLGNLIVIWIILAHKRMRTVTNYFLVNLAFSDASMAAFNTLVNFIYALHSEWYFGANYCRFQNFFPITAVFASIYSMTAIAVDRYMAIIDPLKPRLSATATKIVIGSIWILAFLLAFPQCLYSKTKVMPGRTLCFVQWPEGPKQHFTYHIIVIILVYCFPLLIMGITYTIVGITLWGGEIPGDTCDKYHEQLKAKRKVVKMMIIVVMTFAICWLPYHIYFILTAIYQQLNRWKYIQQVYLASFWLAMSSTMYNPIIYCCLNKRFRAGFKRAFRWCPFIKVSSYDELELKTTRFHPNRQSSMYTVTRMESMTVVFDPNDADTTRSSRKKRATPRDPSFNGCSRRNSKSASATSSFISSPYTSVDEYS
Assay: [3H]SR142801 competition binding assay
Conditions: not given

| Compound | Ki [nM] |
| --- | --- |
| CN(C(=O)Oc1ccc(F)cc1)[C@@H]1CN(C(=O)C2CCNC2)C[C@H]1c1ccc(Cl)cc1 (stereo partly drawn) [Example 168, [(3S,4R)-4-(4-Chloro-phenyl)-1-(pyrrolidine-3-carbonyl)-pyrrolidin-3-yl]-methyl-carbamic acid 4-fluoro-phenyl ester] | 98.4 |
| CN(C(=O)Oc1ccc(F)cc1)[C@H]1CN(C(=O)C2CCNCC2)C[C@@H]1c1ccc(Cl)c(Cl)c1 (racemic) [Example 72, rac-[(3R,4S)-4-(3,4-Dichloro-phenyl)-1-(piperidine-4-carbonyl)-pyrrolidin-3-yl]-methyl-carbamic acid 4-fluoro-phenyl ester] | 21.2 |
| CN(C(=O)Oc1ccc(F)cc1)[C@@H]1CN(C(=O)C2CCN(C(=O)C3(C)COC3)CC2)C[C@H]1c1ccc(Cl)cc1 [Example 248, {(3S,4R)-4-(4-Chloro-phenyl)-1-[1-(3-methyl-oxetane-3-carbonyl)-piperidine-4-carbonyl]-pyrrolidin-3-yl}-methyl-carbamic acid 4-fluoro-phenyl ester] | 2.8 |
| CCC(C)OC(=O)N(C)[C@@H]1CN(C(=O)C2CCN(c3ccc(C#N)cn3)CC2)C[C@H]1c1ccc(Cl)cc1 (stereo partly drawn) [Example 157, [(3S,4R)-4-(4-Chloro-phenyl)-1-(5′-cyano-3,4,5,6-tetrahydro-2H-[1,2′]bipyridinyl-4-carbonyl)-pyrrolidin-3-yl]-methyl-carbamic acid sec-butyl ester] | 27.1 |
| CN(C(=O)OCCC(F)(F)F)[C@H]1CN(C(=O)C2CCN(C(=O)C3(C)CC3)CC2)C[C@@H]1c1ccc(Cl)c(Cl)c1 (stereo in doubt) [Example 86, {(3R,4S)-4-(3,4-dichloro-phenyl)-1-[1-(1-methyl-cyclopropanecarbonyl)-piperidine-4-carbonyl]-pyrrolidin-3-yl}-methyl-carbamic acid 3,3,3-trifluoro-propyl ester] | 60.4 |
| CN(C(=O)Oc1ccc(Cl)cc1)[C@@H]1CN(C(=O)C2CCN(c3ccc(C#N)cn3)CC2)C[C@H]1c1ccc(Cl)cc1 [Example 203, [(3S,4R)-4-(4-Chloro-phenyl)-1-(5′-cyano-3,4,5,6-tetrahydro-2H-[1,2′]bipyridinyl-4-carbonyl)-pyrrolidin-3-yl]-methyl-carbamic acid 4-chloro-phenyl ester] | 0.3 |
| CN(C(=O)Oc1ccc(F)cc1)[C@@H]1CN(C(=O)C2CCN(C(=O)C3(C)COC3)CC2)C[C@H]1c1ccc(Cl)c(Cl)c1 [Example 266, {(3S,4R)-4-(3,4-Dichloro-phenyl)-1-[1-(3-methyl-oxetane-3-carbonyl)-piperidine-4-carbonyl]-pyrrolidin-3-yl}-methyl-carbamic acid 4-fluoro-phenyl ester] | 0.5 |
| CC(=O)c1ccc(N2CCC(C(=O)N3C[C@@H](N(C)C(=O)Oc4ccc(F)cc4)[C@H](c4ccc(F)c(Cl)c4)C3)CC2)nc1 [Example 318, [(3S,4R)-1-(5′-Acetyl-3,4,5,6-tetrahydro-2H-[1,2′]bipyridinyl-4-carbonyl)-4-(3-chloro-4-fluoro-phenyl)-pyrrolidin-3-yl]-methyl-carbamic acid 4-fluoro-phenyl ester] | 0.7 |
| CN(C(=O)OCC1CCC(F)(F)CC1)[C@H]1CN(C(=O)C2CCN(C(=O)C3(C)CC3)CC2)C[C@@H]1c1ccc(Cl)c(Cl)c1 (racemic) [Example 99, rac {(3R,4S)-4-(3,4-Dichloro-phenyl)-1-[1-(1-methyl-cyclopropanecarbonyl)-piperidine-4-carbonyl]-pyrrolidin-3-yl}-methyl-carbamic acid 4,4-difluoro-cyclohexylmethyl ester] | 1.6 |
| CN(C(=O)OCCC(F)(F)F)[C@H]1CN(C(=O)C2CCN(C(=O)C3(C)CC3)CC2)C[C@@H]1c1ccc(Cl)c(Cl)c1 (single isomer, unassigned) [Example 29] | 14.9 |
| CN(C(=O)Oc1ccc(F)cc1)[C@@H]1CN(C(=O)C2CCN(c3ncc(Cl)cn3)CC2)C[C@H]1c1ccc(Cl)cc1 [Example 184, {(3S,4R)-4-(4-Chloro-phenyl)-1-[1-(5-chloro-pyrimidin-2-yl)-piperidine-4-carbonyl]-pyrrolidin-3-yl}-methyl-carbamic acid 4-fluoro-phenyl ester] | 6.7 |
| CN(C(=O)Oc1ccc(F)cc1)[C@H]1CN(C(=O)C2CCN(c3ccc(C#N)cn3)CC2)C[C@@H]1c1ccc(F)cc1 [Example 132, [(3R,4S)-1-(5′-Cyano-3,4,5,6-tetrahydro-2H-[1,2′]bipyridinyl-4-carbonyl)-4-(4-fluoro-phenyl)-pyrrolidin-3-yl]-methyl-carbamic acid 4-fluoro-phenyl ester] | 55.6 |
| CN(C(=O)Oc1ccc(F)cc1)[C@@H]1CN(C(=O)C2CCN(C(=O)C3CC3)C2)C[C@H]1c1ccc(Cl)cc1 (stereo partly drawn) [Example 171, [(3S,4R)-4-(4-Chloro-phenyl)-1-(1-cyclopropanecarbonyl-pyrrolidine-3-carbonyl)-pyrrolidin-3-yl]-methyl-carbamic acid 4-fluoro-phenyl ester] | 9.5 |
| CN(C(=O)Oc1ccc(C#N)c(F)c1)[C@@H]1CN(C(=O)C2CCN(c3ccc(C#N)cn3)CC2)C[C@H]1c1ccc(Cl)cc1 [Example 245, [(3S,4R)-4-(4-Chloro-phenyl)-1-(5′-cyano-3,4,5,6-tetrahydro-2H-[1,2′]bipyridinyl-4-carbonyl)-pyrrolidin-3-yl]-methyl-carbamic acid 4-cyano-3-fluoro-phenyl ester] | 1.1 |
| CN(C(=O)Oc1ccc(F)cc1)[C@@H]1CN(C(=O)C2CCN(C(=O)C3CCOCC3)CC2)C[C@H]1c1ccc(Cl)c(Cl)c1 [Example 275, {(3S,4R)-4-(3,4-Dichloro-phenyl)-1-[1-(tetrahydro-pyran-4-carbonyl)-piperidine-4-carbonyl]-pyrrolidin-3-yl}-methyl-carbamic acid 4-fluoro-phenyl ester] | 0.9 |
| CN(C(=O)OCC(C)(C)C)[C@H]1CN(C(=O)C2CCN(C(=O)C3(C)CC3)CC2)C[C@@H]1c1ccc(Cl)c(Cl)c1 (racemic) [Example 22, rac-{(3R,4S)-4-(3,4-Dichloro-phenyl)-1-[1-(1-methyl-cyclopropanecarbonyl)-piperidine-4-carbonyl]-pyrrolidin-3-yl}-methyl-carbamic acid 2,2-dimethyl-propyl ester] | 16.9 |
| CN(C(=O)Oc1ccc(S(C)(=O)=O)cc1)[C@@H]1CN(C(=O)C2CCN(c3ccc(C#N)cn3)CC2)C[C@H]1c1ccc(Cl)cc1 [Example 224, [(3S,4R)-4-(4-Chloro-phenyl)-1-(5′-cyano-3,4,5,6-tetrahydro-2H-[1,2′]bipyridinyl-4-carbonyl)-pyrrolidin-3-yl]-methyl-carbamic acid 4-methanesulfonyl-phenyl ester] | 22.8 |
| CN(C(=O)Oc1ccc(F)cc1)[C@@H]1CN(C(=O)C2CCC(F)(F)CC2)C[C@H]1c1ccc(Cl)cc1 [Example 117, [(3S,4R)-4-(4-Chloro-phenyl)-1-(4,4-difluoro-cyclohexanecarbonyl)-pyrrolidin-3-yl]-methyl-carbamic acid 4-fluoro-phenyl ester] | 17.4 |
| CN(C(=O)Oc1ccc(F)cc1)[C@@H]1CN(C(=O)C2CCN(C(=O)CC#N)CC2)C[C@H]1c1ccc(Cl)cc1 [Example 253, {(3S,4R)-4-(4-Chloro-phenyl)-1-[1-(2-cyano-acetyl)-piperidine-4-carbonyl]-pyrrolidin-3-yl}-methyl-carbamic acid 4-fluoro-phenyl ester] | 1.8 |
| COC1CCC(OC(=O)N(C)[C@@H]2CN(C(=O)C3CCN(c4ccc(C#N)cn4)CC3)C[C@H]2c2ccc(Cl)cc2)CC1 (stereo partly drawn) [Example 238, [(3S,4R)-4-(4-Chloro-phenyl)-1-(5′-cyano-3,4,5,6-tetrahydro-2H-[1,2′]bipyridinyl-4-carbonyl)-pyrrolidin-3-yl]-methyl-carbamic acid 4-methoxy-cyclohexyl ester] | 48 |
| Cc1cc([C@H]2CN(C(=O)C3CCN(C(=O)C4(C)CC4)CC3)C[C@@H]2N(C)C(=O)Oc2ccc(F)cc2)ccc1Cl (racemic) [Example 71, rac-{(3R,4S)-4-(4-Chloro-3-methyl-phenyl)-1-[1-(1-methyl-cyclopropanecarbonyl)-piperidine-4-carbonyl]-pyrrolidin-3-yl}-methyl-carbamic acid 4-fluoro-phenyl ester] | 1.8 |
| CN(C(=O)OC1CCC(F)(F)CC1)[C@H]1CN(C(=O)C2CCN(C(=O)C3(C)CC3)CC2)C[C@@H]1c1ccc(Cl)c(Cl)c1 (racemic) [Example 102, rac-{(3R,4S)-4-(3,4-Dichloro-phenyl)-1-[1-(1-methyl-cyclopropanecarbonyl)-piperidine-4-carbonyl]-pyrrolidin-3-yl}-methyl-carbamic acid 4,4-difluoro-cyclohexyl ester] | 4 |

Same assay, conditions: hNK-3 receptor affinity; membranes from HEK293 cells transiently expressing recombinant human NK3 receptor; [3H]SR142801; Cheng-Prussoff; read-out: Data Ki

| Ki [nM] | Compound |
| --- | --- |
| 58.6 | CN(C(=O)O[C@H]1CC[C@@H](C(F)(F)F)CC1)[C@H]1CN(C(=O)C2CCN(C(=O)C3(C)CC3)CC2)C[C@@H]1c1ccc(Cl)c(Cl)c1 [Example 107, {(3R,4S)-4-(3,4-Dichloro-phenyl)-1-[1-(1-methyl-cyclopropanecarbonyl)-piperidine-4-carbonyl]-pyrrolidin-3-yl}-methyl-carbamic acid 4-trifluoromethyl-cyclohexyl ester] |
| 12.2 | CN(C(=O)OCCCC(F)(F)F)[C@H]1CN(C(=O)C2CCN(C(=O)C3(C)CC3)CC2)C[C@@H]1c1ccc(Cl)cc1 [Example 100, {(3R,4S)-4-(4-Chloro-phenyl)-1-[1-(1-methyl-cyclopropanecarbonyl)-piperidine-4-carbonyl]-pyrrolidin-3-yl}-methyl-carbamic acid 4,4,4-trifluoro-butyl ester] |
